50 compounds from US10633338B2, “Binding Function 3 (BF3) site compounds as therapeutics and methods for their use” (THE UNIVERSITY OF BRITISH COLUMBIA, priority 2014, dated 2020) can be followed below.

One test has as its system PSA. As to the kind of experiment: Prostate Surface Antigen (PSA) assay, PSA excreted into the media. In kind it is cell-based, human. Conditions: same plates as eGFP assay. As for the experimental part: The evaluation of PSA excreted into the media was performed in parallel to the eGFP assay using the same plates (see above description). After the cells were incubated for 3 days 150 μl of the media was taken from each well, and added to 150 μl of PBS.

A further test concerns the target T1, androgen receptor (AR) (Homo sapiens, UniProt P10275, T878A).
T1 construct: stably transfected eGFP-expressing LNCaP human prostate cancer cells (LN-ARR2PB-eGFP) containing an androgen responsive probasin-derived promoter; endogenous in cells; host or cells: LNCaP (LN-ARR2PB-eGFP)
T1 sequence (P10275 1-920 T878A): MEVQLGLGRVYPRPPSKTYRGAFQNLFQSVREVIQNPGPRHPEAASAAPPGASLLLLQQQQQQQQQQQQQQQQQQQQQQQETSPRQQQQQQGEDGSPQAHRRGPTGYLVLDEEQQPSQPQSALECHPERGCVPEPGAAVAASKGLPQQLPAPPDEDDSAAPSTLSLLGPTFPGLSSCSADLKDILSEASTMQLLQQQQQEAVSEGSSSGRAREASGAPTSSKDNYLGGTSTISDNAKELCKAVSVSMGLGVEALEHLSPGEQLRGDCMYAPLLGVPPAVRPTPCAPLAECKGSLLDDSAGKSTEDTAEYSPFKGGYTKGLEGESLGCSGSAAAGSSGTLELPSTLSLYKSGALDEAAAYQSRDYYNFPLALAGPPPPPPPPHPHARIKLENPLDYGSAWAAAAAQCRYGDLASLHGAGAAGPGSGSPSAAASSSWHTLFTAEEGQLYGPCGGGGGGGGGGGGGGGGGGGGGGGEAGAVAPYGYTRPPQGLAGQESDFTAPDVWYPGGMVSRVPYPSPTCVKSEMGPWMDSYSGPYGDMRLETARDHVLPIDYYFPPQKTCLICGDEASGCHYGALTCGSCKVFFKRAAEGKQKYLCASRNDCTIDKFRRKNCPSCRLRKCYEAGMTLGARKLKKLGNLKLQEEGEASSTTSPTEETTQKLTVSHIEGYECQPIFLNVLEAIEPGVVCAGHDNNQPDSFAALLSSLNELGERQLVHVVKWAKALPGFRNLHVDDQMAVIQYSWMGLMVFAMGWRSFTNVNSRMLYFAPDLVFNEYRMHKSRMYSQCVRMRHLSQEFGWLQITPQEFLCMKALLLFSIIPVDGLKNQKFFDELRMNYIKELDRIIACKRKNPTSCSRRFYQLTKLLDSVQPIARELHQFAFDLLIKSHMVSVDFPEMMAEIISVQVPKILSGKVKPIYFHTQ
The test can be described thus: eGFP cellular AR transcription assay. The format is cell-based. The gist of the method:
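AR transcriptional activity is read as eGFP expression from a probasin-derived androgen-responsive promoter. Compound titrated 0-100 μM in the presence of 0.1 nM R1881; 35,000 cells/well.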

[1] abbreviates: Homo sapiens, 72 h, media after 3 days, read-out: IC50 (PSA).
The mark [2] stands for this setting: LN-ARR2PB-eGFP LNCaP cells, 0.1 nM R1881, 3 days, 0-100 μM compound, read-out: IC50 (eGFP).
Where [3] appears, read: LN-ARR2PB-eGFP LNCaP cells, 0.1 nM R1881, 3 days, 0-100 μM compound.
Setting [4] is: Homo sapiens, 72 h, PSA excreted into media, 3 days incubation, read-out: PSA IC50.
Where [5] appears, read: LN-ARR2PBeGFP LNCaP cells, 0.1 nM R1881, 3 days incubation, read-out: eGFP IC50.
[6] abbreviates: PSA excreted into media, 3 days incubation, read-out: PSA IC50.

Like-named read-outs stand apart in the source and are kept apart here.

The term IC50 denotes the midpoint of a concentration-inhibition curve. `O=[N+]([O-])c1cccc2c(-c3ccc(Br)cc3)c[nH]c12` [13 738]: the IC50 in the test on PSA (setting [1]) turned out to be 0.062 µM; on androgen receptor (AR) (setting [2]) it was 0.083 µM.
In the same order, the values of `c1ccc(-c2c[nH]c3ncccc23)cc1` [13 739] are 0.67 µM and 0.66 µM.
In the same order, the values of `Fc1ccc(-c2c[nH]c3ncccc23)cc1` [13 740] are 0.12 µM and 0.12 µM.
For `FC(F)(F)c1ccc(-c2c[nH]c3ccccc23)nc1` [13 741], in that order: 0.29 µM and 0.29 µM.
`FC(F)(F)c1ccc(-c2c[nH]c3ccccc23)cc1` [13 743]: the IC50 with PSA (setting [1]) worked out at 0.39 µM; at androgen receptor (AR) (setting [2]) it was 0.38 µM.
For `Cc1cccc2c(-c3ccc4cccnc4c3)c[nH]c12` [13 744], in that order: 0.75 µM and 0.76 µM.
In the same order, the values of `FC(F)(F)c1ccccc1-c1c[nH]c2ccccc12` [13 745] are 0.95 µM and 1.01 µM.
In the same order, the values of `Cn1ccc2cc(-c3ccc4ccccc4c3)ccc21` [13 756] are 1.49 µM and 2 µM.
`Cc1cccc2c(-c3ccc4ncsc4c3)c[nH]c12` [13 757]: the “IC50 (PSA)” value in the test on PSA (media after 3 days) is “IC50 (PSA) = Inactive”. Also, at androgen receptor (AR) (setting [3]), the “IC50 (eGFP)” value was “IC50 (eGFP) = Inactive”.
For `Cc1cccc2c(-c3ccc4scnc4c3)c[nH]c12` [13 758], in that order: “IC50 (PSA) = Inactive” and “IC50 (eGFP) = Inactive”.
On to `Cc1cccc2c(-c3ccc4ocnc4c3)c[nH]c12` [13 759], for which the IC50 with PSA (setting [1]) came to 0.27 µM; at androgen receptor (AR) (setting [2]), 0.3 µM.
In the case of `Cc1cccc2c(-c3nc4ccccc4s3)c[nH]c12` [13 760], the IC50 is 0.52 µM with PSA (media after 3 days, read-out: IC50 (PSA)) and 0.1 µM on androgen receptor (AR) (setting [2]).
For the compound `O=C(c1cc2cc(F)ccc2[nH]1)N(Cc1ccco1)Cc1ccco1` [Compound 9125], the concentration for half-maximal inhibition (IC50) came to 2.4 µM in the test with PSA (setting [4]) and 5.2 µM at androgen receptor (AR) (setting [5]).
Take `Cc1ccc(CN(C(=O)c2cc3ccccc3[nH]2)C(C)C)o1` [Compound 9128]: the half-maximal inhibitory concentration (IC50) is 3.5 µM with PSA (setting [4]) and 3.2 µM on androgen receptor (AR) (setting [5]).
In the same order, the values of `c1ccc2[nH]c(-c3c[nH]c4ccccc34)cc2c1` [Compound 13127] are 0.11 µM and 2.1 µM.
For `Fc1ccc(Nc2nc3ccccc3[nH]2)cc1Cl` [Compound 13145], in that order: 2.46 µM and 1.7 µM.
For `c1ccc2c(c1)C[C@@H](c1c[nH]c3ccccc13)N2` [Compound 13163-A], in that order: 0.16 µM and 0.48 µM.
Regarding `c1ccc2c(c1)C[C@H](c1c[nH]c3ccccc13)N2` [Compound 13163-B], the IC50 amounted to 0.24 µM in the test on PSA (setting [4]) and 0.48 µM on androgen receptor (AR) (setting [5]).
Take `CN1c2ccccc2C[C@H]1c1c[nH]c2ccccc12` [Compound 13164-A]: the results for the half-inhibitory concentration (IC50) in the test with PSA (setting [4]) and on androgen receptor (AR) (setting [5]) were 0.67 µM and 0.77 µM, respectively.
For `CN1c2ccccc2C[C@@H]1c1c[nH]c2ccccc12` [Compound 13164-B], in that order: 1.59 µM and 1.3 µM.
For `Cn1cc(-c2cc3ccccc3n2C)c2ccccc21` [Compound 13166], in that order: 2.12 µM and 1.6 µM.
For `O=Nc1c(-c2c[nH]c3ccccc23)[nH]c2ccccc12` [Compound 13167], in that order: 1.25 µM and 1.9 µM.
As for `Cc1ccccc1CSc1c(C)[nH]c2ccccc12` [Compound 13222], the IC50 with PSA (setting [4]) was 0.74 µM; at androgen receptor (AR) (setting [5]), 0.95 µM.
As for `Cc1ccc(/N=N/c2c[nH]c3ccccc23)c(C)c1` [Compound 13225], the IC50 in the test on PSA (setting [6]) turned out to be 0.9 µM; on androgen receptor (AR) (setting [5]), 0.7 µM.
Consider `Clc1cccc(/N=N/c2c[nH]c3ccccc23)c1` [Compound 13226], for which the half-inhibitory concentration (IC50) amounted to 0.076 µM in the test with PSA (setting [4]) and 0.11 µM at androgen receptor (AR) (setting [5]).
Consider `C(=C\c1c[nH]c2ccccc12)/c1ccccc1` [Compound 13235], for which the IC50 amounted to 1.01 µM in the test with PSA (setting [4]) and 2.2 µM at androgen receptor (AR) (setting [5]).
In the case of `C[C@@H]1Cc2ccccc2N1c1nc2ccccc2o1` [Compound 13245], the IC50 came to 1.69 µM in the test on PSA (setting [4]) and 1.7 µM at androgen receptor (AR) (setting [5]).
For the compound `Clc1ccccc1/N=N/c1c[nH]c2ccccc12` [Compound 13255], the results for the IC50 in the test with PSA (setting [4]) and on androgen receptor (AR) (setting [5]) were 0.46 µM and 0.5 µM, respectively.
For `FC(F)(F)c1ccccc1/N=N/c1c[nH]c2ccccc12` [Compound 13259], in that order: 0.25 µM and 0.3 µM.
In the same order, the values of `COc1ccc(/N=C/c2c[nH]c3ccccc23)cc1` [Compound 13300] are 6.76 µM and 9.3 µM.
For `Clc1cc(Cl)cc(/N=C/c2c[nH]c3ccccc23)c1` [Compound 13304], in that order: 4.54 µM and 7.3 µM.
Take `Fc1ccc(CSc2c[nH]c3ccccc23)cc1` [Compound 13410]: the 50% inhibitory concentration (IC50) with PSA (setting [4]) was determined as 2.03 µM; on androgen receptor (AR) (setting [5]), 1.2 µM.
On to `Cc1[nH]c2ccccc2c1SCc1ccccc1F` [Compound 13411], for which the IC50 with PSA (setting [4]) and on androgen receptor (AR) (setting [5]) was 2.4 µM in each case.
Take `Cc1ccccc1CSc1c(C)[nH]c2ccccc12` [Compound 13412]: the concentration for half-maximal inhibition (IC50) in the test on PSA (setting [6]) amounted to 1.23 µM; on androgen receptor (AR) (setting [5]), 0.9 µM.
With `Cc1[nH]c2ccccc2c1SCc1ccccc1` [Compound 13416], the IC50 amounted to 2.32 µM in the test with PSA (setting [4]) and 2.7 µM on androgen receptor (AR) (setting [5]).
In the same order, the values of `Cc1ccc(/N=N/c2c[nH]c3ccccc23)c(C)c1` [Compound 13423] are 1.2 µM and 1.1 µM.
For `Cc1[nH]c2ccccc2c1/N=N/c1ccccc1C(F)(F)F` [Compound 13424], in that order: 3.58 µM and 3.7 µM.
For the compound `NC(=O)c1ccccc1/N=C/c1c[nH]c2ccccc12` [Compound 13427], the results for the IC50 in the test on PSA (setting [4]) and on androgen receptor (AR) (setting [5]) were 0.31 µM and 0.4 µM, respectively.
In the same order, the values of `N#C/C(=C\c1ccc(C(F)(F)F)cc1)c1c[nH]c2ccccc12` [Compound 13434] are 0.73 µM and 0.8 µM.
Take `N#C/C(=C\c1ccc(F)cc1)c1c[nH]c2ccccc12` [Compound 13436]: the 50% inhibitory concentration (IC50) amounted to 0.4 µM in the test on PSA (setting [4]) and 0.6 µM on androgen receptor (AR) (eGFP IC50, LN-ARR2PBeGFP LNCaP cells, 0.1 nM R1881, 3 days incubation).
For the compound `Fc1ccc2[nH]cc(-c3cc4ccccc4[nH]3)c2c1` [Compound 13500], the 50% inhibitory concentration (IC50) in the test on PSA (setting [4]) worked out at 0.41 µM; on androgen receptor (AR) (setting [5]), 1.23 µM.
For `CC1(C)c2ccccc2NC1c1c[nH]c2ccccc12` (stereo not shown) [Compound 13506], in that order: 0.6 µM and 0.18 µM.
For `CC1(C)c2ccccc2NC1C1CN(CCO)c2ccccc21` (stereo not shown) [Compound 13508], in that order: 2.7 µM and 4.8 µM.
For `COc1ccc2[nH]c(-c3c[nH]c4ccccc34)cc2c1` [Compound 13509], in that order: 3.1 µM and 2.6 µM.
With `CC1(C)c2ccccc2NC1c1c[nH]c2ccc(Br)cc12` (stereo not shown) [Compound 13510], the values for the IC50 in the test on PSA (setting [4]) and at androgen receptor (AR) (setting [5]) were 1.54 µM and 2.5 µM, respectively.
In the same order, the values of `CC1(C)c2cc(Br)ccc2NC1c1c[nH]c2ccccc12` (stereo not shown) [Compound 13511] are 1.9 µM and 3 µM.
For `CC1(C)c2ccccc2NC1c1c[nH]c2cc(Cl)ccc12` (stereo not shown) [Compound 13521], in that order: 0.26 µM and 0.4 µM.
In the same order, the values of `CC1(C)c2ccccc2NC1c1c[nH]c2ccc(Cl)cc12` (stereo not shown) [Compound 13522] are 2.19 µM and 3.4 µM.
`CC1(C)c2cc(Br)ccc2NC1c1cn(S(=O)(=O)C[C@]23CC[C@@H](CC2=O)C3(C)C)c2ccccc12` (stereo partly shown) [Compound 13524]: the IC50 turned out to be 6.65 µM in the test with PSA (setting [4]) and 4.9 µM on androgen receptor (AR) (setting [5]).
For `CC1(C)c2ccccc2N(Cc2ccc(O)cc2)C1c1c[nH]c2ccccc12` (stereo not shown) [Compound 13525], in that order: 7.09 µM and 3.1 µM.
